{"source": "paper PMC9306968", "about": "“A structural homologue of the plant receptor D14 mediates responses to strigolactones in the fungal phytopathogen Cryphonectria parasitica” (The New Phytologist, 2022)", "key": {"[1]": {"target": "CpD14", "assay": "intrinsic tryptophan fluorescence titration; UPLC hydrolysis assay; denaturing ESI-MS covalent adduct", "format": "binding, Cryphonectria parasitica", "source_text": "intrinsic tryptophan fluorescence titration; UPLC hydrolysis assay; denaturing ESI-MS covalent adduct on CpD14 | The interaction between (+)‐GR24 and CpD14 was confirmed using tryptophan intrinsic fluorescence assay"}, "[2]": {"target": "T1, RMS3/PsD14 (Lathyrus oleraceus, UniProt A0A109QYD3)", "T1 sequence (A0A109QYD3 1-267)": "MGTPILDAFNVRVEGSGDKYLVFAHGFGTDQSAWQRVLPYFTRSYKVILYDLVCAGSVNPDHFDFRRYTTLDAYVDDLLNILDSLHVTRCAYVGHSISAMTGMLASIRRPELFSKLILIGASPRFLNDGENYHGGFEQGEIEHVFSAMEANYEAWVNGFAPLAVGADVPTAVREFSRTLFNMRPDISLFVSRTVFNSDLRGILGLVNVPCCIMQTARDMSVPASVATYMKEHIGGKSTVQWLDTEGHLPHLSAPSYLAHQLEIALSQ", "assay": "intrinsic tryptophan fluorescence titration (also nanoDSF and UPLC hydrolysis assay)", "format": "binding"}}}
{"molecule": "CC1=C[C@H](O/C=C2/C(=O)O[C@@H]3c4ccccc4C[C@H]23)OC1=O", "note": "[(+)-GR24]", "values": [{"measurement": "Kd", "setting": "[1]", "result": "203 ± 41.1", "unit": "µM"}, {"measurement": "Kd", "setting": "[2]", "result": "9.33 ± 4.27", "unit": "µM"}]}
